# Where two headings read alike, the source gives them in different places.
# Assays:
# [1] = molecular target: rat nNOS (Rattus norvegicus (Rat), UniProt P29476); experiment: Oxyhemoglobin NO capture assay with purified NOS; type: biochemical
# Experimental: (§1) The oxyhemoglobin NO assays were performed with purified NOSs using a Biotek Gen5™ microplate reader as previously reported. […] For iNOS, calmodulin and CaCl2 were omitted because iNOS is calcium independent. […] The calculated standard deviations of the assays were less than 10% with all NOSs. […] The selectivity of antagonism of nNOS was determined by calculating the ratios of the Ki values with iNOS or eNOS to those with rat nNOS.
# [2] = molecular target: murine iNOS (Mus musculus (Mouse), UniProt P29477); experiment: Oxyhemoglobin NO capture assay with purified NOS; type: biochemical
# Experimental: as §1
# [3] = molecular target: bovine eNOS (Bos taurus (Bovine), UniProt P29473); experiment: Oxyhemoglobin NO capture assay with purified NOS; type: biochemical
# Experimental: as §1
# [4] = molecular target: bsNOS (Bacillus subtilis (strain 168), UniProt O34453); experiment: Imidazole displacement, spectral binding constant KS
# [5] = Plasma pharmacokinetics and brain distribution in mice; type: in vivo, male BALB/c mice; conditions: for C0: back extrapolated conc.; for clearance / half-life: 2 mg/kg; for Vd: read-out: Vss
# Experimental: Pharmacokinetic study. A group of forty-eight male mice were divided into two groups: Group 1 (2 mg/kg; i.v.) and Group 2 (10 mg/kg; p.o.) with each group comprising twenty-four mice. […] The blood samples were collected from a set of three mice at each time point in labeled micro centrifuge tubes containing K2EDTA as anticoagulant. Plasma samples were separated by centrifugation of whole blood and stored below −70° C. until bioanalysis. […] Tissue samples were homogenized using ice-cold phosphate buffer saline (pH 7.4) and homogenates were stored below −70° C. until analyzed. The total homogenate volume was three times that of the tissue weight. […] Specific LC-MS/MS and MRM conditions are described below. Pharmacokinetic parameters were calculated using the non-compartmental analysis tool of Phoenix WinNonlin (Version 6.3).
# [6] = ratio Ki iNOS / Ki nNOS, Table 13
# [7] = ratio Ki eNOS / Ki nNOS, Table 13
# [8] = male, BALB/c, mouse, brain, iv, i.v. 2 mg/kg
# [9] = male, BALB/c, mouse, iv, i.v. 2 mg/kg, plasma
# [10] = male, BALB/c, mouse, plasma, iv, i.v. 2 mg/kg
# [11] = male, BALB/c, mouse, po, p.o. 10 mg/kg, plasma
# [12] = ratio Ki iNOS / Ki rat nNOS, Table 9
# [13] = ratio Ki eNOS / Ki rat nNOS, Table 9
# Sequence of bsNOS (O34453 whole entry): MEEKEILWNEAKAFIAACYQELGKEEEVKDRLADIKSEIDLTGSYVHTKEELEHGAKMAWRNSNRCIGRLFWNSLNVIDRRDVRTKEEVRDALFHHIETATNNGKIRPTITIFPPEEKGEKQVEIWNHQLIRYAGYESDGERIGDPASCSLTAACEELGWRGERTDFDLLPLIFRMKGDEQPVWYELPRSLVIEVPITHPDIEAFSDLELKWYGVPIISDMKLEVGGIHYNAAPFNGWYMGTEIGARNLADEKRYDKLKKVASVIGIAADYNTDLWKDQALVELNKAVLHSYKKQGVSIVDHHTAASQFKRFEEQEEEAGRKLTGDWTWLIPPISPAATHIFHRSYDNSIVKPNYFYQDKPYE
compound,measurement,setting,value
"Cc1cc(N)nc(CCc2cccc([C@H](N)Cc3cc(C)cc(N)n3)c2)c1 [Compound 3R, (R)-6-(2-Amino-2-(3-(2-(6-amino-4-methylpyridin-2-yl)ethyl)phenyl)ethyl)-4-methylpyridin-2-amine]",Ki,"[1]; Table 13, read-out: nNOS Ki",0.122 µM
same,Ki,"[2]; Table 13, read-out: iNOS Ki",15.6 µM
"Cc1cc(N)nc(CCc2cccc([C@@H](N)Cc3cc(C)cc(N)n3)c2)c1 [Compound 3S, (S)-6-(2-Amino-2-(3-(2-(6-amino-4-methylpyridin-2-yl)ethyl)phenyl)ethyl)-4-methylpyridin-2-amine]",Ki,"[1]; Table 13, read-out: nNOS Ki",0.144 µM
same,Ki,"[2]; Table 13, read-out: iNOS Ki",17.7 µM
"Cc1ccnc(CCc2cccc([C@H](N)Cc3cc(C)cc(N)n3)c2)c1 [Compound 5R, (R)-6-(2-Amino-2-(3-(2-(4-methylpyridin-2-yl)ethyl)phenyl)ethyl)-4-methylpyridin-2-amine]",Ki,"[1]; Table 13, read-out: nNOS Ki",4.37 µM
same,Ki,"[2]; Table 13, read-out: iNOS Ki",> 100 µM
same,i/n selectivity,[2]; [6],>22
same,e/n selectivity,[3]; [7],240
"Cc1ccnc(CCc2cccc([C@@H](N)Cc3cc(C)cc(N)n3)c2)c1 [Compound 5S, (S)-6-(2-Amino-2-(3-(2-(4-methylpyridin-2-yl)ethyl)phenyl)ethyl)-4-methylpyridin-2-amine]",Ki,"[1]; Table 13, read-out: nNOS Ki",0.903 µM
same,Ki,"[2]; Table 13, read-out: iNOS Ki",> 100 µM
same,i/n selectivity,[2]; [6],>110
same,Ki,"[3]; Table 13, read-out: eNOS Ki",328 µM
same,e/n selectivity,[3]; [7],363
Cc1cc(N)nc(CCc2cccc(C(O)Cc3cc(C)cc(N)n3)c2)c1 (centres unmarked) [Compound 10],Kd,"[4]; KS bsNOS, imidazole displacement, Tables 1 and 4",1.89 µM
Cc1cc(N)nc(COC[C@H](N)[C@H](C)OCc2cc(C)cc(N)n2)c1 [Compound 11],Kd,"[4]; KS (bsNOS), Table 5",1.1 ± 0.1 µM
CCN(CCc1cccc(F)c1)Cc1cccc(NC(=N)c2cccs2)c1 [Compound 15],Kd,"[4]; KS (bsNOS), Table 5",119 ± 25 µM
Nc1ccc2cc(CCNCc3cccc(F)c3)ccc2n1 [Compound 16],Kd,"[4]; KS (bsNOS), Table 5",95 ± 20 µM
Nc1ccc2cc(CNCCc3cccc(F)c3)ccc2n1 [Compound 17],Kd,"[4]; KS (bsNOS), Table 5",420 ± 130 µM
Nc1ccc2ccc(CCNCc3cccc(F)c3)cc2n1 [Compound 18],Kd,"[4]; KS (bsNOS), Table 5",0.97 ± 0.04 µM
"CNCCN(C)c1cc(C#N)cc(CCc2cc(C)cc(N)n2)c1 [Compound 19c, 3-(2-(6-Amino-4-methylpyridin-2-yl)ethyl)-5-(methyl(2-(methylamino)ethyl)amino)benzonitrile]",Ki,"[1]; Table 9, read-out: Ki Rat nNOS",0.024 µM
same,Ki,"[2]; Table 9, read-out: Ki iNOS",3.67 µM
same,Ki,"[3]; Table 9, read-out: Ki eNOS",24.9 µM
same,AUClast,"[5]; i.v. 2 mg/kg, brain",789.07 ng·h/g
same,CL,"[5]; i.v. 2 mg/kg, brain",21.18 mL/min/kg
same,C0,"[5]; i.v. 2 mg/kg, brain",100.28 ng/g
same,CL,"[5]; i.v. 2 mg/kg, plasma",184.16 mL/min/kg
same,T1/2,"[5]; i.v. 2 mg/kg, plasma",1.12 h
same,clearance,[5]; [8],21 mL/min/kg
same,half-life,[5]; [8],24.8 h
same,Vd,"[5]; male, BALB/c, mouse, iv, i.v. 2 mg/kg, brain",44 L/kg
same,AUC(0-inf),[5]; [9],181 ng·h/mL
same,AUC(0-t),[5]; [9],180 ng·h/mL
same,C0,"[5]; male, BALB/c, mouse, iv, i.v. 2 mg/kg, plasma, read-out: C0",472 ng/mL
same,Vd,[5]; [9],14.8 L/kg
same,clearance,[5]; [10],184 mL/min/kg
same,half-life,[5]; [10],1.1 h
same,Cmax,"[5]; male, BALB/c, mouse, po, p.o. 10 mg/kg, brain",39.3 ng/g
same,Tmax,"[5]; male, BALB/c, mouse, po, p.o. 10 mg/kg, brain, read-out: Tmax",4 h
same,AUC(0-inf),[5]; [11],182 ng·h/mL
same,AUC(0-t),[5]; [11],162 ng·h/mL
same,Cmax,[5]; [11],50.8 ng/mL
same,Tmax,"[5]; male, BALB/c, mouse, po, p.o. 10 mg/kg, plasma, read-out: Tmax",0.25 h
same,% F (oral bioavailability),"[5]; p.o. 10 mg/kg vs i.v. 2 mg/kg, AUClast used",18%
same,AUClast,"[5]; p.o. 10 mg/kg, brain",673.67 ng·h/g
same,Tmax,"[5]; p.o. 10 mg/kg, plasma",0.25 h
Nc1ccc2ccc(CNCCCc3cccc(F)c3)cc2n1 [Compound 21],Kd,"[4]; KS (bsNOS), Table 5",3.2 ± 0.1 µM
CCNCCN(C)c1cc(C#N)cc(CCc2cc(C)cc(N)n2)c1 [Compound 21a],Ki,"[1]; Table 9, read-out: Ki Rat nNOS",0.064 µM
same,Ki,"[2]; Table 9, read-out: Ki iNOS",11.5 µM
same,i/n selectivity,[2]; [12],178.0
same,Ki,"[3]; Table 9, read-out: Ki eNOS",37.6 µM
same,e/n selectivity,[3]; [13],583.7
Cc1cc(N)nc(CCc2cc(C#N)cc(N(C)CCNC(C)C)c2)c1 [Compound 21b],Ki,"[1]; Table 9, read-out: Ki Rat nNOS",0.125 µM
same,Ki,"[2]; Table 9, read-out: Ki iNOS",45.1 µM
same,i/n selectivity,[2]; [12],361.5
same,Ki,"[3]; Table 9, read-out: Ki eNOS",39.9 µM
same,e/n selectivity,[3]; [13],320.1
Cc1cc(N)nc(CCc2cc(C#N)cc(N(C)CCNC3CC3)c2)c1 [Compound 21c],Ki,"[1]; Table 9, read-out: Ki Rat nNOS",0.114 µM
same,Ki,"[2]; Table 9, read-out: Ki iNOS",28 µM
same,i/n selectivity,[2]; [12],246.6
same,Ki,"[3]; Table 9, read-out: Ki eNOS",31.1 µM
same,e/n selectivity,[3]; [13],274.0
Cc1cc(N)nc(CCc2cc(C#N)cc(N(C)CCc3cccc(F)c3)c2)c1 [Compound 21d],Ki,"[1]; Table 9, read-out: Ki Rat nNOS",1.8 µM
same,Ki,"[2]; Table 9, read-out: Ki iNOS",45.3 µM
same,i/n selectivity,[2]; [12],33.7
"Cc1cc(N)nc(CCc2cc(C#N)cc(NCCc3cccc(F)c3)c2)c1 [Compound 22, 3-(2-(6-Amino-4-methylpyridin-2-yl)ethyl)-5-((3-fluorophenethyl)amino)benzonitrile]",Kd,"[4]; KS (bsNOS), Table 5",62 ± 25 µM
"Cc1cc(N)nc(CCc2cc(F)cc(NCCN(C)C)c2)c1 [Compound 23a, N^1-(3-(2-(6-Amino-4-methylpyridin-2-yl)ethyl)-5-fluorophenyl)-N^2,N^2-dimethylethane-1,2-diamine]",Ki,"[1]; Table 9, read-out: Ki Rat nNOS",0.07 µM
same,Ki,"[2]; Table 9, read-out: Ki iNOS",3.31 µM
same,i/n selectivity,[2]; [12],47.3
same,Ki,"[3]; Table 9, read-out: Ki eNOS",9.58 µM
same,e/n selectivity,[3]; [13],136.9
"CCNCCN(C)c1cc(F)cc(CCc2cc(C)cc(N)n2)c1 [Compound 23b, N^1-(3-(2-(6-Amino-4-methylpyridin-2-yl)ethyl)-5-fluorophenyl)-N^2-ethyl-N^1-methylethane-1,2-diamine]",Ki,"[1]; Table 9, read-out: Ki Rat nNOS",0.032 µM
same,Ki,"[2]; Table 9, read-out: Ki iNOS",6.38 µM
same,i/n selectivity,[2]; [12],199.4
same,Ki,"[3]; Table 9, read-out: Ki eNOS",17.9 µM
same,e/n selectivity,[3]; [13],558.4
"Cc1cc(N)nc(CCc2cc(F)cc(N(C)CCNC3CC3)c2)c1 [Compound 23c, N^1-(3-(2-(6-Amino-4-methylpyridin-2-yl)ethyl)-5-fluorophenyl)-N^2-cyclopropyl-N^1-methylethane-1,2-diamine]",Ki,"[1]; Table 9, read-out: Ki Rat nNOS",0.05 µM
same,Ki,"[2]; Table 9, read-out: Ki iNOS",10.9 µM
same,i/n selectivity,[2]; [12],217.8
same,Ki,"[3]; Table 9, read-out: Ki eNOS",6.21 µM
same,e/n selectivity,[3]; [13],124.3
"CCN(CCNC)c1cc(F)cc(CCc2cc(C)cc(N)n2)c1 [Compound 23d, N^1-(3-(2-(6-Amino-4-methylpyridin-2-yl)ethyl)-5-fluorophenyl)-N^1-ethyl-N^2-methylethane-1,2-diamine]",Ki,"[1]; Table 9, read-out: Ki Rat nNOS",0.046 µM
same,Ki,"[2]; Table 9, read-out: Ki iNOS",5.04 µM
same,i/n selectivity,[2]; [12],109.6
same,Ki,"[3]; Table 9, read-out: Ki eNOS",4.29 µM
same,e/n selectivity,[3]; [13],93.2
"CNCCN(c1cc(F)cc(CCc2cc(C)cc(N)n2)c1)C1CC1 [Compound 23e, N^1-(3-(2-(6-amino-4-methylpyridin-2-yl)ethyl)-5-fluorophenyl)-N^1-cyclopropyl-N^2-methylethane-1,2-diamine]",Ki,"[1]; Table 9, read-out: Ki Rat nNOS",0.056 µM
same,Ki,"[2]; Table 9, read-out: Ki iNOS",8.33 µM
same,i/n selectivity,[2]; [12],148.7
same,Ki,"[3]; Table 9, read-out: Ki eNOS",7.89 µM
same,e/n selectivity,[3]; [13],140.9
"Cc1cc(N)nc(CCc2cc(F)cc(NCc3cccc(Cl)c3)c2)c1 [Compound 23f, 6-(3-((3-Chlorobenzyl)amino)-5-fluorophenethyl)-4-methylpyridin-2-amine]",Ki,"[1]; Table 9, read-out: Ki Rat nNOS",0.027 µM
same,Ki,"[2]; Table 9, read-out: Ki iNOS",9.56 µM
same,i/n selectivity,[2]; [12],354.1
same,Ki,"[3]; Table 9, read-out: Ki eNOS",7.08 µM
same,e/n selectivity,[3]; [13],262.0
"Cc1cc(N)nc(CCc2cc(F)cc(NCc3cccnc3)c2)c1 [Compound 23g, 6-(3-Fluoro-5-((pyridin-3-ylmethyl)amino)phenethyl)-4-methylpyridin-2-amine]",Ki,"[1]; Table 9, read-out: Ki Rat nNOS",1.03 µM
same,Ki,"[2]; Table 9, read-out: Ki iNOS",11 µM
same,i/n selectivity,[2]; [12],10.7
same,Ki,"[3]; Table 9, read-out: Ki eNOS",10.3 µM
same,e/n selectivity,[3]; [13],10.0
"Cc1cc(N)nc(CCc2cc(F)cc(N3CCNCC3)c2)c1 [Compound 23h, 6-(3-Fluoro-5-(piperazin-1-yl)phenethyl)-4-methylpyridin-2-amine]",Ki,"[1]; Table 9, read-out: Ki Rat nNOS",0.058 µM
same,Ki,"[2]; Table 9, read-out: Ki iNOS",3.51 µM
same,i/n selectivity,[2]; [12],60.2
same,Ki,"[3]; Table 9, read-out: Ki eNOS",4.84 µM
same,e/n selectivity,[3]; [13],82.8
"Cc1cc(N)nc(CCc2cc(F)cc(NC3CCNCC3)c2)c1 [Compound 23i, 6-(3-Fluoro-5-(piperidin-4-ylamino)phenethyl)-4-methylpyridin-2-amine]",Ki,"[1]; Table 9, read-out: Ki Rat nNOS",0.121 µM
same,Ki,"[2]; Table 9, read-out: Ki iNOS",13.5 µM
same,i/n selectivity,[2]; [12],110.9
same,Ki,"[3]; Table 9, read-out: Ki eNOS",4.89 µM
same,e/n selectivity,[3]; [13],40.2

# — patent US9951014B2, “Mammalian and bacterial nitric oxide synthase inhibitors” (Northwestern University, priority 2014, dated 2018)
